Experiments:
[1] = test system: Sinapis alba, Chrysanthemum segetum, Avena sativa, Stellaria media, Echinochloa crus-galli, Lolium multiflorum, Setaria viridis, Abutilon theophrasti …; test: Pre-emergence action against weeds (greenhouse pot test, optical scoring); format: in vivo, monocotyledonous and dicotyledonous weed plants; conditions: herbicide/safener combination, above all with safeners II-1, II-9, III-1, b-11, b-14, IX-A3; pre-emergence method; 500 g or less of herbicide (A) per hectare; 3 to 4 weeks
Text: Seeds or rhizome pieces of monocotyledonous and dicotyledonous weed plants were placed in sandy loam soil in cardboard pots and covered with soil. The active compounds (A) and (B), formulated in the form of wettable powders or emulsion concentrates, were then applied to the surface of the covering soil in various dosages as aqueous suspensions or emulsions using a water application rate of 300 to 800 l/ha (converted).
After the treatment, the pots were placed in a greenhouse and kept under good growth conditions for the weeds. Optical scoring of the damage to the plants or emerged plants was carried out after emergence of the test plants after a trial period of 3 to 4 weeks, in comparison to untreated controls. As shown by the results, the tested herbicide/safener combinations have good herbicidal pre-emergence activity against a broad spectrum of weed grasses and broad-leaved weeds.

[2] = test system: Sinapis alba, Echinochloa crus-galli, Lolium multiflorum, Chrysanthemum segetum, Setaria viridis, Abutilon theophrasti, Amaranthus retroflexus, Panicum …; test: Post-emergence action against weeds (greenhouse pot test, visual scoring); format: in vivo, monocotyledonous and dicotyledonous weeds; conditions: herbicide/safener combination, above all with safeners II-1, II-9, III-1, b-11, b-14, IX-A3; post-emergence method, three-leaf stage; 500 g or less of herbicide (A) per hectare; three to four weeks
Protocol: Seeds or rhizome pieces of monocotyledonous and dicotyledonous weeds were placed into sandy loam soil in plastic pots, covered with soil and grown in a greenhouse under good growth conditions. Three weeks after sowing, the test plants were treated at the three-leaf stage. The compounds according to the invention, formulated as wettable powders or as emulsion concentrates, were sprayed onto the green parts of the plants at various dosages using a water application rate of 300 to 800 l/ha (converted). The test plants were stood in the greenhouse under optimum growth conditions for about three to four weeks, and the action of the preparations was then scored visually in comparison to untreated controls. Post-emergence, too, the herbicide/safener combinations according to the invention have good herbicidal activity against a broad spectrum of economically important weed grasses and broad-leaved weeds.

[3] = test system: cotton, oilseed rape, sugar beet and Gramineae crops such as barley, wheat, rye, millet, corn or rice; test: Compatibility with crop plants (greenhouse, visual scoring); format: in vivo; conditions: herbicide/safener combination, above all with safeners II-1, II-9, III-1, b-11, b-14, IX-A3; pre-emergence method or post-emergence method; four to five weeks after application
Text: In further greenhouse trials, seeds of a relatively large number of crop plants and weeds were placed into sandy loam soil and covered with soil. Some of the pots were immediately treated as described in Section 1, the others were placed in a greenhouse until the plants had developed two to three true leaves and were then sprayed with various dosages of the herbicide/safener combinations according to the invention, as described in Section 2.

| Compound | herbicidal activity against harmful plants (optical scoring of damage vs untreated controls) [1] | herbicidal activity against harmful plants (visual scoring vs untreated controls) [2] | damage to crop plants (visual scoring) [3] |
| --- | --- | --- | --- |
| CC1(C)CC(S(=O)(=O)C(Cl)c2c(F)cccc2Cl)=NO1 (stereo not drawn) [I-5.1] | very good herbicidal activity | very good herbicidal activity | did not cause any damage |
| CC1(C)CC(S(=O)(=O)C(F)c2cc(F)ccc2F)=NO1 (stereo not drawn) [I-249.1] | very good herbicidal activity | very good herbicidal activity | did not cause any damage |
| CC1(C)CC(S(=O)(=O)C(Cl)c2cc(F)cc(F)c2F)=NO1 (stereo not drawn) [I-129.1] | very good herbicidal activity | very good herbicidal activity | did not cause any damage |
| CCC1(C)CC(S(=O)(=O)C(Cl)c2c(C(F)(F)F)nn(C)c2Cl)=NO1 (stereo not drawn) [I-216.2] | very good herbicidal activity | very good herbicidal activity | did not cause any damage |
| CC1(C)CC(S(=O)(=O)C(Cl)c2c(Cl)cccc2Cl)=NO1 (stereo not drawn) [I-109.1] | very good herbicidal activity | very good herbicidal activity | did not cause any damage |
| CC1(C)CC(S(=O)(=O)C(Cl)c2ccccc2Cl)=NO1 (stereo not drawn) [I-6.1] | very good herbicidal activity | very good herbicidal activity | did not cause any damage |
| CCC1(C)CC(S(=O)(=O)C(Cl)c2c(F)cccc2F)=NO1 (stereo not drawn) [I-3.2] | very good herbicidal activity | very good herbicidal activity | did not cause any damage |
| CC1(C)CC(S(=O)(=O)C(Cl)c2ccccc2)=NO1 (stereo not drawn) [I-1.1] | very good herbicidal activity | very good herbicidal activity | did not cause any damage |
| Cn1nc(C(F)(F)F)c(C(F)S(=O)(=O)C2=NOC(C)(C)C2)c1OC(F)F (stereo not drawn) [I-260.1] | very good herbicidal activity | very good herbicidal activity | did not cause any damage |
| CC1(C)CC(S(=O)(=O)C(Cl)c2c(F)cccc2F)=NO1 (stereo not drawn) [I-3.1] | very good herbicidal activity | very good herbicidal activity | did not cause any damage |
| CCC1(C)CC(S(=O)(=O)C(Cl)c2cc(F)ccc2F)=NO1 (stereo not drawn) [I-2.2] | very good herbicidal activity | very good herbicidal activity | did not cause any damage |
| CC1(C)CC(S(=O)(=O)C(Cl)c2cc(F)ccc2F)=NO1 (stereo not drawn) [I-2.1] | very good herbicidal activity | very good herbicidal activity | did not cause any damage |
| Cn1nc(C(F)(F)F)c(C(Br)S(=O)(=O)C2=NOC(C)(C)C2)c1OC(F)F (stereo not drawn) [I-275.1] | very good herbicidal activity | very good herbicidal activity | did not cause any damage |
| Cn1nc(C(F)(F)F)c(C(Cl)[S+]([O-])C2=NOC(C)(C)C2)c1OC(F)F (stereo not drawn) [I-289.1] | very good herbicidal activity | very good herbicidal activity | did not cause any damage |
| CCC1(C)CC(S(=O)(=O)C(Cl)c2cc(C(F)(F)F)ccc2Cl)=NO1 (stereo not drawn) [I-98.2] | very good herbicidal activity | very good herbicidal activity | did not cause any damage |
| Cn1nc(C(F)(F)F)c(C(Cl)S(=O)(=O)C2=NOC(C)(C)C2)c1OC(F)F (stereo not drawn) [I-206.1] | very good herbicidal activity | very good herbicidal activity | did not cause any damage |
| CC1(C)CC(S(=O)(=O)C(F)c2c(F)cccc2F)=NO1 (stereo not drawn) [I-250.1] | very good herbicidal activity | very good herbicidal activity | did not cause any damage |
| CC1(C)CC(S(=O)(=O)C(Cl)c2ccccc2OC(F)(F)F)=NO1 (stereo not drawn) [I-10.1] | very good herbicidal activity | very good herbicidal activity | did not cause any damage |
| CC1(C)CC(S(=O)(=O)C(Cl)c2c(F)cccc2C(F)(F)F)=NO1 (stereo not drawn) [I-117.1] | very good herbicidal activity | very good herbicidal activity | did not cause any damage |
| Cn1nc(C(F)(F)F)c(C(Cl)S(=O)(=O)C2=NOC(C)(C)C2)c1Cl (stereo not drawn) [I-216.1] | very good herbicidal activity | very good herbicidal activity | did not cause any damage |
| CC1(C)CC(S(=O)(=O)C(Cl)c2cc(C(F)(F)F)ccc2F)=NO1 (stereo not drawn) [I-4.1] | very good herbicidal activity | very good herbicidal activity | did not cause any damage |

From US20070015661A1, “Herbicide/safener combination” (Bayer CropScience GmbH, priority 2005, published 2007)
